# According to US11198673B2, “Therapeutic compounds and compositions” (eXIthera Pharmaceuticals, Inc., priority 2014, dated 2021):
# pIC50: −log10 of the molar value. Structures can show the parent of a compound that is named as a salt.
# Experiments:
# human Factor XIa = biological target: T1, human Factor XIa (Homo sapiens, UniProt P03951); assay: Factor XIa enzyme inhibition assay (IC50, purified enzyme); type: biochemical; details: purified enzyme 0.25 nM, substrate 50 μM; read-out: Potency hFXIa IC50
# T1 construct: Enzyme: Factor XIa; 0.25 μM in 50% glycerol (20 μg/mL)
# Method: • Assay buffer: 20 mM Hepes, pH 7.4; 150 mM NaCl; 0.02% Tween 20 • Compounds: 10 mM stocks in DMSO • Substrate: 20 mM Glp-Pro-Arg-AMC, 25 mg/2.3 mL H2O (store at +4° C.) [Factor XIa, thrombin, and trypsin] • 20 mM Pro-Phe-Arg-AMC (Bachem I-1295), 25 mg/2.2 mL H2O (store at +4° C.) [Factor Xa] • Enzyme: Factor XIa; 0.25 μM in 50% glycerol (20 μg/mL) • Trypsin; 0.2 μM in 50% glycerol (4.8 μg/mL) • Thrombin; 0.2 μM in 50% glycerol (7.34 μg/mL) • Factor Xa; 0.2 μM in 50% glycerol (9.2 μg/mL) • These stocks are aliquoted ([…]) and stored at −20° C. Methods: • 1. Dilute the substrate to 100 μM in assay buffer (30 μL/6 mL). The enzyme is diluted to 0.5 nM just prior to use (12 μL/6 mL for Factor XIa; 15 μL/6 mL for all of the rest.) • 2. Pipette 50 μL of substrate into each well of the 96 well (12×8) microtiter plate. (Column 1 is used as the 100% activity control and receives no compound, and Column 12 is the blank and receives no enzyme.) Add an additional 46 μL to column 2. • 3. Pipette 4 μL of each compound into the appropriate well in column 2 of the plate (unknowns assayed in triplicate, standard assayed in duplicate). The final compound concentration will be 1/50th of the stock. • 4. Serially two-fold dilute the compound by mixing the sample in column 2, removing 50 μL to the next well (column 3), mix and remove to column 4, etc. until column 11. After mixing column 11, remove 50 μL and discard. • 5. Pipette 50 μL of buffer into column 12. Initiate the reaction by adding 50 μL of enzyme solution to each well of columns 1-11 as rapidly as possible. • 6. Read the plate in a spectrophotometer (SpectraMax) at 30° C., wherein each well is measured every 60 s for 30 min. For Factor Xa assays, each well is measured every 1 min for a total of 60 min. • 7. For Factor XIa assays, the compounds are assayed, in duplicate, at 3 different starting concentrations, 20, 2, and 0.2 μM; 1:10, 1:100, and 1:1000 dil'n of 10 mM stock. All data sets are combined for graphing and data fitting. • 8. Data can be used both for estimation of IC50 and for estimation of Kon.
# Potential inhibitors of Factor XIa were evaluated using the following assay.
# S-2366, pyroGlu-Pro-Arg-7-methylaminocourin (AMC), available from CPC Scientific, Inc., is based on the substrate pyro-Glu-Pro-Arg-pNA, available from Diapharma Group, Inc. (Columbus, Ohio), where the p-nitroanaline group is replaced with 7-methylaminocoumarin (AMC).
# The final concentration of the substrate in the assay was 50 μM, and the final concentration of the enzyme was 0.25 nM. Inhibitors were tested by serial dilution over an appropriate range to yield a dose response curve for determination of the inhibitors' IC50 value. The assay mixture was read every minute for 30 minutes in order to generate progress curves. The plates were read in a Spectramax m5 Multimode Plate Reader (Molecular Devices LLC, Sunnyvale, Calif.). Dose response curves were fit to Equation 1 below in which A is the maximum inhibition, B is the minimum inhibition, C is the IC50, and D is the Hill coefficient. [(A−B)/(1+(X/C)^D)]+B (Equation 1)
# [1] = β-Lactam stability in rat plasma; type: in vitro ADME; details: normal rat plasma, room temperature; read-out: Rat Plasma Stability (T1/2; min)
# Method: Normal rat plasma, stored at −80° C.
# • 1. Place 6 μL of each compound into 0.5 mL microcentrifuge tubes or 96-well U-bottom, polypropylene microtiter plate • 2. Place 40 μL of acetonitrile (AcN) into 0.5 mL microcentrifuge tubes labeled 1-9 • 3. Add 114 μL of plasma to each compound • 4. Sample 10 μL of compound/plasma into AcN at 2, 10, 20, 30, 60, 90, 120, 240, and 480 min of incubation at room temperature • 5. Mix each time point after adding sample and place on ice. • 6. Centrifuge time points (12,000 rpm, 3 min), remove 15 μL of the supernatant and mix with 15 μL 0.1% TFA in a V-bottom microtiter plate. • 7. Place microtiter plate in autosampler of HPLC and analyze on Restek Pinnacle C18 column (2.1×100 mm). • 8. Generate extracted ion chromatogram for parent compound and parent compound+18 (H2O). Integrate extracted ion chromatograms (EIC) and plot % total peak area for parent and adduct versus time. Fit to a model of single phase exponential decay [Y=A0*exp(−k*x)+C]. T½ is equal to ln(2)/k.
# T1 sequence (P03951 388-625 limits assumed): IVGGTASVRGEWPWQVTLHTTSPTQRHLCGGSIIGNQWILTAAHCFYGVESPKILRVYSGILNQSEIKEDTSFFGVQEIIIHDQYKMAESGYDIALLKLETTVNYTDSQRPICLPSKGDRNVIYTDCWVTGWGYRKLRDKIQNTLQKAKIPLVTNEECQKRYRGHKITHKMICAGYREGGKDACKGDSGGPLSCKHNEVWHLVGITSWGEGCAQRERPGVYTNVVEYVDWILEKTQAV
# T1 sequence (P03951 19-387 partner limits assumed): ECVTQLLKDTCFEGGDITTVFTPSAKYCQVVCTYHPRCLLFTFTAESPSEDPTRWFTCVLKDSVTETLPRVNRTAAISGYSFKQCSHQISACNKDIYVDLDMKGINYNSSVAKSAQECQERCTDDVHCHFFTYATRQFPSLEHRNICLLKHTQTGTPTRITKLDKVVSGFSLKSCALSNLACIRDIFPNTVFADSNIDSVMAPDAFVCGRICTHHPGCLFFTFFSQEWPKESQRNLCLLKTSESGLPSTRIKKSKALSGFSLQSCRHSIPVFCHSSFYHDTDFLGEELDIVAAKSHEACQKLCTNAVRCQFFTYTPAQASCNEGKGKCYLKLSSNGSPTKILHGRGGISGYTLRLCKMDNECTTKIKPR
Structure (SMILES),pIC50 (human Factor XIa),half-life [1] [h]
"C[C@@H](NC(=O)N1C(=O)[C@H](Cc2ccnc(N)c2)[C@H]1C(N)=O)c1ccccc1 [Example 13, (2S,3R)-3-[(2-aminopyridin-4-yl)methyl]-4-oxo-N-1-[(1R)-1-phenylethyl]azetidine-1,2-dicarboxamide trifluoroacetate]",< 6.00,–
O=C(O)[C@@H]1[C@@H](Cc2ccnc(Cl)c2)C(=O)N1C(=O)NC(c1ccccc1)c1ccccc1 [Example 51],< 6.00,–
CCCCCCOC(=O)Nc1cc(C[C@H]2C(=O)N(C(=O)NC(c3ccccc3)c3ccccc3)[C@@H]2C(=O)O)ccn1 [Example 56],< 6.00,> 1.67
CCCCCCOC(=O)Nc1cc(C[C@H]2C(=O)N(C(=O)NC(c3ccccc3)c3ccccc3)[C@@H]2C(=O)OCC)ccn1 [Example 57],< 6.00,< 1.67
CCOC(=O)[C@@H]1[C@@H](Cc2cccnc2)C(=O)N1C(=O)N[C@H](C)c1ccc2c(c1)OC(F)(F)O2 [Example 95],< 6.00,–
C[C@@H](NC(=O)N1C(=O)[C@H](Cc2ccc(Cl)nc2)[C@H]1C(=O)O)c1ccc2c(c1)OC(F)(F)O2 [Example 96],< 6.00,–
CCOC(=O)[C@@H]1[C@@H](Cc2ccc(Cl)nc2)C(=O)N1C(=O)N[C@H](C)c1ccc2c(c1)OC(F)(F)O2 [Example 97],< 6.00,< 1.67
C[C@@H](NC(=O)N1C(=O)[C@H](Cc2cncs2)[C@H]1C(=O)O)c1ccc2c(c1)OC(F)(F)O2 [Example 102],< 6.00,> 1.67
C[C@@H](NC(=O)N1C(=O)[C@H](Cc2cc(Cl)ccn2)[C@H]1C(=O)O)c1ccc2c(c1)OC(F)(F)O2 [Example 107],< 6.00,–
C[C@@H](NC(=O)N1C(=O)[C@H](Cc2cncc(Cl)c2)[C@H]1C(=O)O)c1ccc2c(c1)OC(F)(F)O2 [Example 108],< 6.00,–
C[C@@H](NC(=O)N1C(=O)[C@H](Cc2ccccn2)[C@H]1C(=O)O)c1ccc2c(c1)OC(F)(F)O2 [Example 114],< 6.00,–
O=C(O)[C@@H]1[C@@H](Cc2cccc(Br)c2)C(=O)N1C(=O)N[C@@H](C1CCCCC1)C(F)(F)F [Example 131],< 6.00,–
O=C(O)[C@@H]1[C@@H](Cc2cncc(Cl)c2)C(=O)N1C(=O)N[C@@H](C1CCCCC1)C(F)(F)F [Example 133],< 6.00,–
O=C(O)[C@@H]1[C@@H](Cc2cccc3c2OCO3)C(=O)N1C(=O)N[C@@H](C1CCCCC1)C(F)(F)F [Example 136],6.00 to 7.00,–
O=C(O)[C@@H]1[C@@H](Cc2cccc3[nH]ncc23)C(=O)N1C(=O)N[C@@H](C1CCCCC1)C(F)(F)F [Example 138],< 6.00,–
O=C(O)[C@@H]1[C@@H](Cc2ccccc2)C(=O)N1C(=O)N[C@@H](C1CCCCC1)C(F)(F)F [Example 139],< 6.00,–
C[C@H](c1ccccc1)N(C)C(=O)N1C(=O)[C@H](CCc2cccc(Cl)c2)[C@H]1C(=O)O [Example 144],< 6.00,–
O=C(O)[C@@H]1[C@@H](CCc2ccccc2)C(=O)N1C(=O)N[C@@H](C1CCCCC1)C(F)(F)F [Example 145],< 6.00,–
O=C(O)[C@@H]1[C@@H](Cc2ccnc(O)c2)C(=O)N1C(=O)N[C@@H](C1CCCCC1)C(F)(F)F [Example 147],< 6.00,–
C[C@H](C1CCCCC1)N(C)C(=O)N1C(=O)[C@H](Cc2ccnc(N)c2)[C@H]1C(=O)O [Example 149],7.00 to 8.00,–
CCOC(=O)[C@@H]1[C@@H](Cc2ccnc(NC(=O)OC(C)OC(=O)C(C)C)c2)C(=O)N1C(=O)N[C@H](C)C1CCCCC1 (stereo partly drawn) [Example 150],7.00 to 8.00,< 1.67

# Other lines, results leading:
pIC50 (human Factor XIa),half-life [1] [h],Structure (SMILES)
7.00 to 8.00,< 1.67,CCOC(=O)[C@@H]1[C@@H](Cc2ccnc(N)c2)C(=O)N1C(=O)N(C)[C@H](C)C1CCCCC1 [Example 151]
< 6.00,–,O=C(O)[C@@H]1[C@@H](CCCc2ccccc2)C(=O)N1C(=O)N[C@@H](C1CCCCC1)C(F)(F)F [Example 152]
< 6.00,–,O=C(O)[C@@H]1[C@@H](CCc2ccc(Cl)cc2)C(=O)N1C(=O)N[C@@H](C1CCCCC1)C(F)(F)F [Example 153]
< 6.00,–,COc1cccc(CC[C@H]2C(=O)N(C(=O)N[C@@H](C3CCCCC3)C(F)(F)F)[C@@H]2C(=O)O)c1 [Example 154]
6.00 to 7.00,–,Cc1cccc(CC[C@H]2C(=O)N(C(=O)N[C@@H](C3CCCCC3)C(F)(F)F)[C@@H]2C(=O)O)c1 [Example 155]
< 6.00,–,O=C(O)[C@@H]1[C@@H](CCc2cccc(Cl)c2)C(=O)N1C(=O)NC(c1ccccc1)c1ccccc1 [Example 157]
6.00 to 7.00,–,C[C@@H](NC(=O)N1C(=O)[C@H](CCc2cccc(Cl)c2)[C@H]1C(=O)O)c1ccc2c(c1)OC(F)(F)O2 [Example 159]
6.00 to 7.00,< 1.67,CCCCCCOC(=O)Nc1cc(C[C@H]2C(=O)N(C(=O)NC(C)c3ccccc3)[C@@H]2C(=O)OCC)ccn1 (stereo partly drawn) [Example 160]
< 6.00,< 1.67,CC(C)OC(=O)[C@@H]1[C@@H](Cc2ccc(Cl)nc2)C(=O)N1C(=O)N[C@H](C)c1ccc2c(c1)OC(F)(F)O2 [Example 171]
< 6.00,> 1.67,CCCCCCOC(=O)Nc1cc(C[C@H]2C(=O)N(C(=O)N[C@H](C)c3ccccc3)[C@@H]2C(=O)O)ccn1 [Example 175]
< 6.00,–,C[C@@H](NC(=O)N1C(=O)[C@H](Cc2ccnc(Cl)c2)[C@H]1C(=O)O)c1ccccc1 [Example 190]
< 6.00,–,C[C@@H](NC(=O)N1C(=O)[C@H](Cc2cccnc2)[C@H]1C(=O)O)c1ccc2c(c1)OC(F)(F)O2 [Example 191]
< 6.00,–,CCCC(CCC)NC(=O)N1C(=O)[C@H](CCc2cccc(Cl)c2)[C@H]1C(=O)O [Example 192]
< 6.00,–,O=C(O)[C@@H]1[C@@H](Cc2cccc(Cl)c2)C(=O)N1C(=O)N[C@@H](C1CCCCC1)C(F)(F)F [Example 193]
< 6.00,–,O=C(O)[C@@H]1[C@@H](CCc2ccccc2Cl)C(=O)N1C(=O)N[C@@H](C1CCCCC1)C(F)(F)F [Example 194]
< 6.00,–,O=C(O)[C@@H]1[C@@H](Cc2ccc(Cl)cc2)C(=O)N1C(=O)N[C@@H](C1CCCCC1)C(F)(F)F [Example 195]
< 6.00,–,O=C(O)[C@@H]1[C@@H](Cc2ccccc2Cl)C(=O)N1C(=O)N[C@@H](C1CCCCC1)C(F)(F)F [Example 196]
6.00 to 7.00,–,O=C(O)[C@@H]1[C@@H](CCc2cc(Cl)ccc2F)C(=O)N1C(=O)N[C@@H](C1CCCCC1)C(F)(F)F [Example 197]
6.00 to 7.00,–,O=C(O)[C@@H]1[C@@H](CCc2cc(Cl)ccc2Cl)C(=O)N1C(=O)N[C@@H](C1CCCCC1)C(F)(F)F [Example 198]
6.00 to 7.00,–,O=C(O)[C@@H]1[C@@H](CCc2cccc(Cl)c2)C(=O)N1C(=O)N[C@@H](C1CCCCCCC1)C(F)(F)F [Example 199]
< 6.00,–,O=C(O)[C@@H]1[C@@H](CCc2ccc(Br)s2)C(=O)N1C(=O)N[C@@H](C1CCCCC1)C(F)(F)F [Example 200]
